Experimental data published in patent US7026466B1, “Serotonin-gated anion channel” (Massachusetts Institute of Technology, priority 1999, dated 2006).
Where two headings read alike, the source gives them in different places.

Assays:
[1] = biological target: MOD-1 channel (Caenorhabditis elegans, UniProt Q9GQ00); test: Voltage clamp of MOD-1 heterologously expressed in Xenopus oocytes or HEK cells; format: cell-based, C. elegans
[2] = tested on: C. elegans; test: Enhanced slowing response (locomotion) of food-deprived C. elegans on a bacterial lawn; format: in vivo
[3] = biological target: T1, 5-HT3a channel (Homo sapiens, UniProt P46098)
T1 sequence (P46098 24-478): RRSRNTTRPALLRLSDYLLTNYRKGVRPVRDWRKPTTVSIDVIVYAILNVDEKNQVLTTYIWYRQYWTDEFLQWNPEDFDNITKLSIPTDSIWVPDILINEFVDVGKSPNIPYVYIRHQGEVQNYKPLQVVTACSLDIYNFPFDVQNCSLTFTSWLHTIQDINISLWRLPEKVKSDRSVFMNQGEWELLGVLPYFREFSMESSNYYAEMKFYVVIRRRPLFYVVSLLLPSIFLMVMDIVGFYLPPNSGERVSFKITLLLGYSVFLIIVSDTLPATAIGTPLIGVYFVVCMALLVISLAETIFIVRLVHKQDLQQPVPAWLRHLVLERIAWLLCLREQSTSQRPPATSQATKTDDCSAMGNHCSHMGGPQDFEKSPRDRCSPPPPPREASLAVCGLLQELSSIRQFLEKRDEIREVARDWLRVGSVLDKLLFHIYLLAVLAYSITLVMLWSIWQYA

[4] = tested on: MOD-1-like serotonin-activated current; test: Voltage clamp of Xenopus oocytes injected with rat brain RNA (MOD-1-like response); format: cell-based; details: −70 mV, BAPTA-AM 200 μM
Method: A method to identify a mammalian serotonin-gated chloride channel was carried out essentially as described above. Oocytes were injected with rat cortex RNA. […] The oocytes were then screened under a voltage clamp, in a buffer containing 96 mM NaCl, 2 mM KCl, 0.3 mM CaCl2, 1 mM MgCl2, and 5 mM HEPES (pH 7.5), and with 100 mM Tris added.
In additional studies, oocytes were injected with poly(A)+ RNA from rat cortex, striatum, or thalamus, as described above. The oocytes were bathed in 200 μM BAPTA-AM for 2 hours, and were then screened under a voltage clamp, in a bath solution containing 2 mM Co^2+ to block 5-HT3a responses. […] FIG. 12 is a representative time trace of a MOD-1-like response from an oocytes injected with rat cortex RNA. These MOD-1-like currents were not detected in oocytes injected with rat RNA from spinal cord, heart, lung, or testes.

[5] = biological target: T1, 5-HT3a channel; details: read-out: IC 50, competitive antagonist of the 5-HT3a channel; cited from earlier work
[6] = pretreatment of wild-type C. elegans, food-deprived

MOD-1 channel, sequence (Q9GQ00 whole entry, looked up): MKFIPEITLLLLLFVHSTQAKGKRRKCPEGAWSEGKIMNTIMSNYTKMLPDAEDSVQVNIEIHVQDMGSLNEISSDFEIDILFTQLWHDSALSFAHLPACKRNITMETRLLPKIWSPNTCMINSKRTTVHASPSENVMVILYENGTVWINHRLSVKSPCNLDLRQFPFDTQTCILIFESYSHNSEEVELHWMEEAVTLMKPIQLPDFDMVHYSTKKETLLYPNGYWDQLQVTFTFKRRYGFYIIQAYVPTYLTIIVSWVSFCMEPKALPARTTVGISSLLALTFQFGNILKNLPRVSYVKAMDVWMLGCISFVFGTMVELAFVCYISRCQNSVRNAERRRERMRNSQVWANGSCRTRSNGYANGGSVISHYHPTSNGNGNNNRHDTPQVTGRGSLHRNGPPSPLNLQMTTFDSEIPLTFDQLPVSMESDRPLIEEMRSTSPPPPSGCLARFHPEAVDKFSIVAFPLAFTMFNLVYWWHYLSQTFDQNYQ

NCCCC(=O)O [GABA]
response from the MOD-1 channel ([1]; application of 1 mM agonist): little or no response

CC(=O)OCOC(=O)CN(CC(=O)OCOC(C)=O)c1ccccc1OCCOc1ccccc1N(CC(=O)OCOC(C)=O)CC(=O)OCOC(C)=O [BAPTA-AM]
effect on the function of MOD-1 ([1]; approximately 200 μM in the bath): does not affect the function of MOD-1

NCC(=O)O [glycine]
response from the MOD-1 channel [1]: little or no response

CSc1ccc2c(c1)C(N1CCN(C)CC1)Cc1ccccc1S2 (centres unmarked) [methiothepin]
Ki ([1]; MOD-1 in oocytes, read-out: approximate Ki, inhibition of the MOD-1 channel): ~32 µM
effect on enhanced slowing response ([2]; pre-treatment of mod-1 mutants): did not further affect the defective enhanced slowing response
effect on enhanced slowing response [2, 6]: prevents food-deprived animals from exhibiting the wild-type enhanced slowing response

NC(CO)(CO)CO [Tris]
block of the 5-HT3 cation channel ([3]; 100 mM added to buffer): completely blocks

NCCc1c[nH]c2ccc(O)cc12 [serotonin]
current elicited ([1]; 100 nM, holding potential −70 mV): large inward currents
concentration of agonist at which serotonin-gated currents are detectable ([1]; MOD-1 receptors, HEK cell and Xenopus oocyte expression systems): 10 to 50 nM
oocytes with inward currents ([4]; rat cortex RNA, 1 μM serotonin for 1 minute, 100 mM Tris): about 10%
oocytes with inward currents ([4]; rat cortex, striatum or thalamus poly(A)+ RNA, 1 μM serotonin, 2 mM Co2+): approximately 33%
response of 5-HT3a channels ([3]; 1 μM serotonin): no response is detectable
response of 5-HT3a channels ([3]; 10 μM serotonin): robust current
concentration of agonist at which serotonin-gated currents are detectable ([3]; 5-HT3 receptors, HEK cell and Xenopus oocyte expression systems): > 10 µM

σ-conotoxin GVIIIA
IC50 [5]: ~0.05 µM

CN1CCN2c3ccccc3Cc3ccccc3C2C1 (centres unmarked) [mianserin]
effect on enhanced slowing response ([2]; pre-treatment of mod-1 mutants): did not further affect the defective enhanced slowing response
effect on enhanced slowing response [2, 6]: prevents food-deprived animals from exhibiting the wild-type enhanced slowing response
